Measured values: publication PMC9034380 (RSC Advances, 2021)

Experiments:
Format in all cases: cell-based
Hh signaling pathway = assay: Gli-luciferase; settings: for IC50: read-out: Gli-luc reporter IC50
wild-type Smo = wild-type Smo (Mus musculus, UniProt P56726); assay: Gli-Luc reporter assay in NIH3T3-Gli-Luc cells overexpressing wild-type Smo
Smo D477G = Smo D477G (Mus musculus, UniProt P56726, D477G); assay: Gli-Luc reporter assay in NIH3T3-Gli-Luc cells overexpressing Smo D477G
Daoy cells = assay: Cell proliferation; settings: Homo sapiens, 48 h, read-out: cell viability
Smo = Smo (Homo sapiens, UniProt Q99835); assay: Smo ciliary localization in NIH3T3 cells expressing Smo treated with Shh
Smo, sequence (Q99835 28-787): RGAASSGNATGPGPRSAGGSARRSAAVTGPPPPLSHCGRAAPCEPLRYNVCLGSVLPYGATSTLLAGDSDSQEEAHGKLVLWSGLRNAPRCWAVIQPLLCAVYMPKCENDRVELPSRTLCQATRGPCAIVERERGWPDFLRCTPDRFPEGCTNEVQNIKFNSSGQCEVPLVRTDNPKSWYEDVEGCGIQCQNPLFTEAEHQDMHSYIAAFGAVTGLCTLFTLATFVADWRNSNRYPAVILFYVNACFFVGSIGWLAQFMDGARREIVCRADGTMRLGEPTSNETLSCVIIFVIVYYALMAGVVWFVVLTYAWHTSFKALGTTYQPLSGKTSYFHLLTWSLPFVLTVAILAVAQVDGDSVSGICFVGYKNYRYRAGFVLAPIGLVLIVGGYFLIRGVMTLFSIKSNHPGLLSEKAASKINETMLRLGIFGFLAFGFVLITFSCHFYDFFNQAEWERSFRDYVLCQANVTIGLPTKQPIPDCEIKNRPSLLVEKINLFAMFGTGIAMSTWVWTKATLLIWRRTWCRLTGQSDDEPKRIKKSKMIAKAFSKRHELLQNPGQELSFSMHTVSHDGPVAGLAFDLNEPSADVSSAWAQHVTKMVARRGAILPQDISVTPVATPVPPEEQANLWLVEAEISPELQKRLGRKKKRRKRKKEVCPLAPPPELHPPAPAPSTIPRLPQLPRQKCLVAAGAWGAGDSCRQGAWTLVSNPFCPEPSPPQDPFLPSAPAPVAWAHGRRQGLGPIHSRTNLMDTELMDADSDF

Smo D477G, sequence (P56726 33-793 D477G): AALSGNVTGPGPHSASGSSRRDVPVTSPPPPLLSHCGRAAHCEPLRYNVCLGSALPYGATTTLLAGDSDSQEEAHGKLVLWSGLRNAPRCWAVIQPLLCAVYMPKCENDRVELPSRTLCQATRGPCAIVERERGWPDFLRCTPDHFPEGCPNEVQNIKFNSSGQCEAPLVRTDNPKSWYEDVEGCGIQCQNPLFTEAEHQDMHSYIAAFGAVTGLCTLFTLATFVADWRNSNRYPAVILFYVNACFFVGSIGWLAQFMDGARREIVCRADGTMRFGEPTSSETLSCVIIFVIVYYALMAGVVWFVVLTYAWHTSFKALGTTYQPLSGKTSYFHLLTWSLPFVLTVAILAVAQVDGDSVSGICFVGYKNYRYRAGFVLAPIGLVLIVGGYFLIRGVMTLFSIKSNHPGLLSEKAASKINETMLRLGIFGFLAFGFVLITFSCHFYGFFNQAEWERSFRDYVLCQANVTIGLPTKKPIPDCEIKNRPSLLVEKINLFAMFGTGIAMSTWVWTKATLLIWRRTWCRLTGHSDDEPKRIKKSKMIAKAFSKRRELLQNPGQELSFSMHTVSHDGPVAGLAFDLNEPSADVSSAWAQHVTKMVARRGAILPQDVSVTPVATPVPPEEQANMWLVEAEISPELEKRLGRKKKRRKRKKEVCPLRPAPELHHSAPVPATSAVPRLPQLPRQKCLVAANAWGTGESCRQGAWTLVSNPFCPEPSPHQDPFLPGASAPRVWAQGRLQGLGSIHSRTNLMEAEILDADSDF
wild-type Smo, sequence (P56726 33-793): as the sequence (P56726 33-793 D477G) above, with G445D counted along it

SMILES	IC50 (Hh signaling pathway)	further results
CS(=O)(=O)c1ccc(C(=O)Nc2ccc(Cl)c(-c3ccccn3)c2)c(Cl)c1 [Compound 1, vismodegib, reference compound]	20 ± 10 nM	–
COc1cc(NC(=O)c2cccnc2Cl)ccc1C(=O)Nc1ccc(Cl)c(-c2nc3ccccc3[nH]2)c1 [Compound 14]	50 ± 20 nM	–
COc1cc(NC(=O)c2cccnc2)ccc1C(=O)Nc1ccc(Cl)c(-c2nc3ccccc3[nH]2)c1 [Compound 16]	80 ± 20 nM	–
COc1cc(NC(=O)c2ccccc2Cl)ccc1C(=O)Nc1ccc(Cl)c(-c2ncc(-c3ccccc3)[nH]2)c1 [Compound 17]	120 ± 60 nM	–
COc1cc(NC(=O)c2ccc(Cl)cc2Cl)ccc1C(=O)Nc1ccc(Cl)c(-c2ncc(-c3ccccc3)[nH]2)c1 [Compound 18]	260 ± 80 nM	loss of potency vs compound 17 (Hh signaling pathway; Gli-luc IC50 ratio to compound 17): 2.2 fold
COc1cc(NC(=O)c2ccc(F)cc2)ccc1C(=O)Nc1ccc(Cl)c(-c2ncc(-c3ccccc3)[nH]2)c1 [Compound 20]	250 ± 40 nM	–
COc1cc(NC(=O)c2cccnc2Cl)ccc1C(=O)Nc1ccc(Cl)c(-c2ncc(-c3ccccc3)[nH]2)c1 [Compound 21]	30 ± 10 nM	potency compared to compound 3 (Hh signaling pathway; Gli-luc reporter, fold higher than compound 3): 6 fold; IC50 (wild-type Smo): 39 nM; IC50 (Smo D477G): 96 nM; Hh pathway inhibition in mutant D477G (Smo D477G; NIH3T3-Gli-Luc cells overexpressing Smo D477G): slightly decreased; shift in IC50, mutant D477G vs WT (Smo D477G; Smo D477G vs wild-type Smo): 2.4 fold; viability at 1 µM (Daoy cells): 72%; viability at 10 µM (Daoy cells): 43%; Smo ciliary translocation (Smo): sharp drop
COc1cc(NC(=O)c2ccc(Cl)nc2)ccc1C(=O)Nc1ccc(Cl)c(-c2ncc(-c3ccccc3)[nH]2)c1 [Compound 22]	150 ± 80 nM	–
COc1cc(NC(=O)c2cccnc2)ccc1C(=O)Nc1ccc(Cl)c(-c2ncc(-c3ccccc3)[nH]2)c1 [Compound 23]	70 ± 20 nM	–
